Experimental data: US20250213587A1, “ITK INHIBITORS FOR INCREASING TH1 CELL ACTIVITY” (Corvus Pharmaceuticals, Inc., priority 2022, published 2025)
pIC50: −log10 of the molar value.

Legend:
human kinome = assay: Human kinome profiling at 1.0 μM; format: biochemical
[1] = system: IL-2 secretion by Jurkat T cells; assay: Inhibition of IL-2 production in Jurkat cells; format: cell-based; conditions: Homo sapiens, washout, anti-CD3 18 hours, 15 determinations
Procedure: Jurkat cells (0.25×10^6) in Dulbecco's Modified Eagle's medium (Gibco) supplemented with 5% FBS were seeded in each well of a 96 well MultiScreenR HV filter plate (EMD Millipore) placed on top of a 96 well collection plate. CPI 818 was serially diluted in DMSO and added to the culture. After a 2-hour incubation at 37° C. the plates were centrifuged (188×g for 15 seconds) to remove the inhibitor-containing medium from the filter plate. Cells were washed twice by resuspending with 200 μL of medium per well and centrifuged. Cells in each well were then resuspended with 1.25×10^6 (50 μL) of Dynabeads CD3 (Life Technologies) and incubated for 18 hours at 37° C. Conditioned media was collected by centrifugation (188×g for 1 min). Human IL-2 concentration was measured with the AlphaLISA human IL2 Kit (PerkinElmer) and data collected on an Envision Plate Reader (PerkinElmer). Data were analyzed and graphed using GraphPad Prism version b7.0b. Technical duplicates of the concentration response were collected at each determination.

human T cells (PBMC) = assay: T cell activation, Th1 skewing, cell number and viability; format: cell-based
Procedure: Fresh PBMCs from healthy human donors were centrifuged and reconstituted at 0.312×10^6 cells/mL in RPMI 1640 medium+10% heat-inactivated FBS+1× penicillin streptomycin and 100,000 cells/well were distributed into 24 well tissue culture plate. Cells were incubated at 37° C. for 1 hour, followed by the addition of CPI 596 or vehicle. The cells were then incubated at 37° C. for 1 hour, followed by the addition of […] anti CD3 and anti CD28 (both eBioscience). Cells were incubated at 37° C. for 6 days, with supplemental media supplied on day 3. On Day 6, the cells were transferred to a 96 deep well plate, washed, and treated with 50 nM phorbol 12-myristate 13-acetate, 1 μg/mL ionomycin, and 1 μg/mL brefeldin A, and then incubated at 37° C. for 4 hours. The cells were then fixed and permeabilized using eBioscience Fox3/transcription factor staining buffer. Cells were treated with Fc block (BioLegend) and then stained with CD3 BV605, CD45RA PerCP-Cy5.5, Tbet PE, IFNγ AF488, IL-4 APC (BioLegend), CD4 PE-Cy7, cPARP AF700 (BD Biosciences), and CD8 Krome Orange (Beckman Coulter). For flow cytometry, 300,000 cells were acquired on Cytoflex (Beckman Coulter). Data were analyzed using Flowjo software. The percentage of CD4^+ T cells that were positive for IFNγ and IL 4 were reported.

ITK = biological target: T1, ITK (Mus musculus, UniProt Q03526); assay: ITK occupancy in mouse splenocytes; format: in vivo; conditions: for receptor occupancy at 50 mg/kg: po
T1 construct: from tissue; host or cells: splenocytes of dosed C57Bl/6 mice
T1 sequence (Q03526 1-625): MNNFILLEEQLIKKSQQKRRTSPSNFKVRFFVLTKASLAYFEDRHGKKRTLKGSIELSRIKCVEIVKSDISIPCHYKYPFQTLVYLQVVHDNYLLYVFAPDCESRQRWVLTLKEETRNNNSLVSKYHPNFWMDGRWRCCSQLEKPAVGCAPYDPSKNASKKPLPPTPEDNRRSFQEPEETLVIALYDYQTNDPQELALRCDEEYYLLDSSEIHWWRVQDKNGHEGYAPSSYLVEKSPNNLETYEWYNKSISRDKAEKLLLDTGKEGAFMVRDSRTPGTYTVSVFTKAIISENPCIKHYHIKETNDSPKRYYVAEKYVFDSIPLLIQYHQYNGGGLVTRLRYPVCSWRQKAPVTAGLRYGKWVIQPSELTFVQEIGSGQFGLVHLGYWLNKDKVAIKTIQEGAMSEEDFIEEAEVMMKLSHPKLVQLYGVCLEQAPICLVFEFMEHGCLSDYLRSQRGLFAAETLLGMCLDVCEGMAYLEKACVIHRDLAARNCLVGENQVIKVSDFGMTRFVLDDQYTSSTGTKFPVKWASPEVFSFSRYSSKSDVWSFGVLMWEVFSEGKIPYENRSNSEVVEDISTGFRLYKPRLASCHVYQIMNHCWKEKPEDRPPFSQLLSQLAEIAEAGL
Procedure: The active site occupancy of ITK by a covalent inhibitor was measured using an irreversibly bound biotinylated probe in an immuno-electrochemiluminescence assay. The binding of an inhibitor and the probe to the ATP binding site is mutually exclusive. In lysates of immune cell lines or immune cells collected from treated animals, the biotinylated probe reacts with free (uninhibited) ITK and is subsequently captured on a streptavidin-coated surface and quantified. The free ITK in each sample is normalized by dividing it by either the lysate protein concentration (BCA protein assay, Pierce) or cell count of the sample. Normalized free ITK values are generated for samples collected prior to and after treatment from which occupancy was calculated using equation 7. Single cell suspensions of Jurkat cells, mouse splenocytes, dog PBMC or purified normal human T cells were prepared. Cell lysis was performed using a buffer containing CelLytic M (Sigma Aldrich) supplemented with protease and phosphatase inhibitors (Pierce). The cell pellet resuspended in lysis buffer was incubated at room temperature for 30 minutes when the lysate was clarified by centrifugation at 20,000×g for 5 minutes at 4° C. A solution of the biotinylated probe CP-613 (27.5 nM final, FIG. 14B) was added to the lysate and incubated with mixing for 60 minutes at room temperature. The lysate mixture (35 μL) was transferred in duplicate to separate wells of a blocked streptavidin-coated plate (Mesoscale Diagnostics) then incubated at room temperature with mixing for 60 minutes. The lysate mixture was removed from the plate and the wells were washed with three rounds of PBS/Tween 20 buffer (Thermo Scientific). Rabbit polyclonal anti-ITK antibody solution (Abcam) was dispensed into the wells of the plate and incubated at room temperature with mixing for 60 minutes. The antibody solution was removed from the wells and washed with three rounds of PBS/Tween 20 buffer. Anti-rabbit antibody (goat) sulfo-TAG (Mesoscale Diagnostics) was dispensed into the wells of the plate then incubated at room temperature with mixing for 60 minutes. The antibody solution was removed from the plate and the wells washed with three rounds of PBS/Tween 20 buffer. Read buffer (Mesoscale Diagnostics) diluted two-fold with water was dispensed into the wells of the plate which was read immediately using an MESO Quickplex SQ 120 instrument.
Male C57Bl/6 mice (6-8 weeks of age) were purchased from Charles River Laboratories. […] At scheduled time points mice were euthanized by asphyxiation by CO2 and their spleens were collected immediately and placed into ice cold PBS (N=4/timepoint). All animal procedures were conducted in accordance with a protocol approved by the IACUC committee at Corvus Pharmaceuticals.

human CD4 T cells = assay: T cell exhaustion markers; format: cell-based

C=CC(=O)N1CCCN(C(=O)c2cc(Sc3cnc(NC(=O)C4CC4)s3)c(C)cc2OC)C[C@H]1C [CPI-818]
number of kinases inhibited ≥65% (human kinome): eight
pIC50 [1]: 6.87
total T cell proliferation (human T cells (PBMC); 10 μM): abrogates total T cell proliferation
total number of cells and cell viability (human T cells (PBMC); ≥1 μM / high concentrations): reduced the total number of cells while maintaining cell viability
receptor occupancy at 300 mg/kg/day (ITK; mouse, chow formulation, 300 mg/kg/day): 86 to 95%
receptor occupancy at 50 mg/kg (ITK; mouse, 50 mg/kg BID PO, 2 h after dosing): 95%
receptor occupancy at 50 mg/kg (ITK; mouse, 50 mg/kg BID PO, 12 h, prior to second dose): 36%
receptor occupancy at 50 mg/kg (ITK; mouse, single 50 mg/kg PO, 24 h): 17%
receptor occupancy at 50 mg/kg (ITK; mouse, single 50 mg/kg PO, first 8 h): 87 to 98%
ITK occupancy in splenocytes (ITK; single 50 mg/kg PO, first 8 h, 50 mg/kg): > 87%
ITK occupancy (ITK; single dose, 30 to 120 min): essentially complete ITK occupancy
T cell exhaustion: granzyme B and IFNγ levels (human CD4 T cells): reverses T cell exhaustion
LAG3, TIGIT and PD-1 (human CD4 T cells; various concentrations): downregulate biomarkers of T cell exhaustion
